One data set concerns mGFAP protein. In words: cell-based GFAP protein level assay (cell-based ELISA) in 172.9 cells. Particulars: tertiary screen; 48 hr exposure; at the MTDcc. Also noted: species or system mouse. In general terms: ELISA stands for enzyme-linked immunosorbent assay.
Data set [1] deals with 2.2 kb human GFAP promoter. Put plainly: hGFAP promoter luciferase activity assay in 172.9 cells (primary astrocytes from dual luciferase transgenic mice). In kind it is cell-based.
For data set [2] the following is noted: sometimes considered in combination with desmethyl-clomipramine; cited from earlier work.
A further data set concerns 172.9 cells. Put plainly: cell viability (CellTiter-Glo) / MTDcc in 172.9 cells. (ATP-based viability assays read luminescence as a measure of living cells.)

The structures appear in SMILES notation.

As to `CN(C)CCCN1c2ccccc2CCc2ccc(Cl)cc21` [clomipramine], the “% GFAP reductions, mGFAP protein via ELISA” value in the data set on mGFAP protein came to 20.6%. For the same molecule, in data set [1] (cultured astrocytes), the “concentrations found effective in cultured astrocytes” value was 5 to 10 µM. Moreover, the “reductions in luciferase activity” value in data set [1] (quaternary screen, 10 days of exposure, 0-20 μM) is “consistent reductions”. For the same molecule, in data set [1] (tertiary screen, 48 hr exposure, at the MTDcc), the “% GFAP reductions, luciferace expression from hGFAP promoter” value worked out at 66%. The “plasma concentration considered therapeutic in humans” value in data set [2] was 300 to 1750 nM. The cell viability result in the data set with 172.9 cells (quaternary screen, 10 days of exposure) is “acceptable cell viability”. The MTDcc in the data set on 172.9 cells (tertiary screen, 48 hr exposure, 0.1-20 μM, highest concentration that retained at least 70% cell viability) was 12.5 µM.

Source of the values: patent US8372808B2, “Suppression of glial fibrillary acidic protein” (Wisconsin Alumni Research Foundation, priority 2008, dated 2013).
